In ChEMBL document CHEMBL1146362, “Organoiodine(III) mediated synthesis of 3,9-diaryl- and 3,9-difuryl-bis-1,2,4-triazolo[4,3-a][4,3-c]pyrimidines as antibacterial agents” (2007):
≈ marks a conversion by molar mass, not a printed value. Calls of active or inactive are those of the source. The calls are words filed in the database; no cut-off is given here.

Tests used:
[1] = tested on: Escherichia coli; assay: Antibacterial activity against Escherichia coli MTCC 51 after 24 hrs by agar dilution assay; type: functional; settings: MTCC 51, 24 h
[2] = tested on: Bacillus subtilis; assay: Antibacterial activity against Bacillus subtilis MTCC 121 after 24 hrs by agar dilution assay; type: functional; settings: MTCC 121, 24 h
[3] = tested on: Staphylococcus epidermidis; assay: Antibacterial activity against Staphylococcus epidermidis MTCC 2639 after 24 hrs by agar dilution assay; type: functional; settings: MTCC 2639, 24 h
[4] = tested on: Salmonella typhi; assay: Antibacterial activity against Salmonella typhi MTCC 733 after 24 hrs by agar dilution assay; type: functional, Salmonella enterica subsp. enterica serovar Typhi; settings: Salmonella enterica, MTCC 733, 24 h
[5] = tested on: Staphylococcus aureus; assay: Antibacterial activity against Staphylococcus aureus MTCC 3160 after 24 hrs by agar dilution assay; type: functional; settings: MTCC 3160, 24 h
[6] = tested on: Staphylococcus aureus; assay: Antibacterial activity against Staphylococcus aureus MTCC 3160 after 24 hrs by agar diffusion assay; type: functional
[7] = tested on: Staphylococcus epidermidis; assay: Antibacterial activity against Staphylococcus epidermidis MTCC 2639 after 24 hrs by agar diffusion assay; type: functional
[8] = tested on: Escherichia coli; assay: Antibacterial activity against Escherichia coli MTCC 51 after 24 hrs by agar diffusion assay; type: functional
[9] = tested on: Salmonella typhi; assay: Antibacterial activity against Salmonella typhi MTCC 733 after 24 hrs by agar diffusion assay; type: functional, Salmonella enterica subsp. enterica serovar Typhi
[10] = tested on: Bacillus subtilis; assay: Antibacterial activity against Bacillus subtilis MTCC 121 after 24 hrs by agar diffusion assay; type: functional

SMILES | MIC [1] | MIC [2] | MIC [3] | MIC [4] | MIC [5] | inhibition zone (IZ) [6] | inhibition zone (IZ) [7] | Activity [8] | inhibition zone (IZ) [9] | inhibition zone (IZ) [10] | inhibition zone (IZ) [8] | Activity [7] | Activity [6] | Activity ([9]; Salmonella enterica subsp. enterica serovar Typhi) | Activity [10]
N[C@@H](C(=O)N[C@@H]1C(=O)N2C(C(=O)O)=C(Cl)CS[C@H]12)c1ccccc1 [CEFACLOR ANHYDROUS] | 4 µg/mL (≈ 10.9 µM) | 8 µg/mL (≈ 21.8 µM) | 4 µg/mL (≈ 10.9 µM) | 2 µg/mL (≈ 5.44 µM) | 4 µg/mL (≈ 10.9 µM) |  |  |  |  |  |  |  |  |  | 
Fc1ccc(-c2nnc3n2ccc2nnc(-c4ccc(F)cc4)n23)cc1 | 4 µg/mL (≈ 11.5 µM) | 2 µg/mL (≈ 5.74 µM) | 4 µg/mL (≈ 11.5 µM) | 64 µg/mL (≈ 184 µM) | 4 µg/mL (≈ 11.5 µM) | 24.83 mm | 25 mm | inactive | 10 mm | 25 mm |  |  |  |  | 
c1coc(-c2nnc3n2ccc2nnc(-c4ccco4)n23)c1 | 64 µg/mL (≈ 219 µM) | 8 µg/mL (≈ 27.4 µM) | 64 µg/mL (≈ 219 µM) | 64 µg/mL (≈ 219 µM) | 0.5 µg/mL (≈ 1.71 µM) | 40 mm | 10 mm |  | 10 mm | 20 mm | 10 mm |  |  |  | 
COc1ccc(-c2nnc3n2ccc2nnc(-c4ccc(OC)cc4)n23)cc1 | > 64 µg/mL | 64 µg/mL (≈ 172 µM) | > 64 µg/mL | 64 µg/mL (≈ 172 µM) | 64 µg/mL (≈ 172 µM) | 10.83 mm |  | inactive | 10 mm | 10 mm |  | inactive |  |  | 
CC(=O)NC[C@H]1CN(c2ccc(N3CCOCC3)c(F)c2)C(=O)O1 [LINEZOLID] | 8 µg/mL (≈ 23.7 µM) | 2 µg/mL (≈ 5.93 µM) | 8 µg/mL (≈ 23.7 µM) | 2 µg/mL (≈ 5.93 µM) |  |  |  |  |  |  |  |  |  |  | 
Cc1ccc(-c2nnc3n2ccc2nnc(-c4ccc(C)cc4)n23)cc1 | > 64 µg/mL | 8 µg/mL (≈ 23.5 µM) | > 64 µg/mL | > 64 µg/mL | > 64 µg/mL |  |  | inactive |  | 20.83 mm |  | inactive | inactive | inactive | 
COc1ccc(OC)c(-c2nnc3n2ccc2nnc(-c4cc(OC)ccc4OC)n23)c1 | > 64 µg/mL | 32 µg/mL (≈ 74 µM) | 8 µg/mL (≈ 18.5 µM) | 8 µg/mL (≈ 18.5 µM) | 8 µg/mL (≈ 18.5 µM) | 20.16 mm | 20 mm | inactive | 20 mm | 15.16 mm |  |  |  |  | 
Clc1ccc(-c2nnc3n2ccc2nnc(-c4ccc(Cl)cc4)n23)cc1 | > 64 µg/mL | 8 µg/mL (≈ 21 µM) | > 64 µg/mL | 8 µg/mL (≈ 21 µM) | 32 µg/mL (≈ 83.9 µM) | 15 mm |  | inactive | 20 mm | 20 mm |  | inactive |  |  | 
O=[N+]([O-])c1ccc(-c2nnc3n2ccc2nnc(-c4ccc([N+](=O)[O-])cc4)n23)cc1 | 2 µg/mL (≈ 4.97 µM) | 1 µg/mL (≈ 2.49 µM) | 2 µg/mL (≈ 4.97 µM) | 1 µg/mL (≈ 2.49 µM) | 1 µg/mL (≈ 2.49 µM) | 30 mm | 25.16 mm |  | 30 mm | 30 mm | 25 mm |  |  |  | 
Brc1ccc(-c2nnc3n2ccc2nnc(-c4ccc(Br)cc4)n23)cc1 | > 64 µg/mL | > 64 µg/mL | > 64 µg/mL | 32 µg/mL (≈ 68.1 µM) | > 64 µg/mL |  |  | inactive | 15 mm |  |  | inactive | inactive |  | inactive
O=[N+]([O-])c1ccc(-c2nnc3n2ccc2nnc(-c4ccc([N+](=O)[O-])o4)n23)o1 | 2 µg/mL (≈ 5.23 µM) | 0.5 µg/mL (≈ 1.31 µM) | 1 µg/mL (≈ 2.62 µM) | 1 µg/mL (≈ 2.62 µM) | 8 µg/mL (≈ 20.9 µM) | 20.83 mm | 35 mm |  | 35.16 mm | 40 mm | 30 mm |  |  |  | 
